This is an account of results in publication PMC3259267 (Bioorganic & medicinal chemistry, 2011).

A short description of data set [1]: Plasma concentration and blood brain barrier penetration. The following applies: G93A SOD1 transgenic mice, single ip 50 mg/kg.
Data set [2] concerns panel of 68 radioligand receptor assays. In words: LeadProfilingScreen radioligand binding panel. The note with it: 10 uM; none positive, mostly <10%.
Data set [3] can be described thus: Caco-2 monolayer permeability. The note with it: human. Background: Caco-2 monolayers are a common model of the intestinal barrier.
Data set [4] relates to ALS. The note with it: ALS patients, on average; ref [1]; cited from earlier work.

Molecules are shown by their SMILES.

`O=C1CC(=O)CC(c2cc(C(F)(F)F)cc(C(F)(F)F)c2)C1` [Compound 26]: the “period of stable plasma concentrations” value in data set [1] fell in the range of 3 to 12 h. For the same molecule, the “inhibition in all 68 radioligand receptor assays” value in data set [2] was less than 20%.

The molecule `CC(Oc1cc(C(F)(F)F)cc(C(F)(F)F)c1)C1CC(=O)CC(=O)C1` (stereo not shown) [Compound 73] yielded a Papp A→B at 2 h, 50 μM in data set [3] of 24.8 ×10⁻⁶ cm/s.

With `Nc1nc2ccc(OC(F)(F)F)cc2s1` [riluzole], the extension of life in data set [4] was 2–3 months.

A word on the Papp A→B: it is how fast a substance crosses the layer from the apical side.
